Earlier results as cited in patent publication US20050142195A1, “Stable pharmaceutical compositions without a stabilizer” (priority 2002, published 2005).
Where two headings read alike, the source gives them in different places.

In the case of `CC(NC(C)(C)C)C(=O)c1cccc(Cl)c1.Cl` (racemic) [bupropion, (±)-1-(3-chlorophenyl)-2-[(1,1-dimethylethyl)amino]-1-propanone hydrochloride], the “stability in mixture with lubricant” value (in the presence of magnesium stearate or stearic acid) is listed as “poor” and the “stability in mixture with lubricant” value (in the presence of talc) is listed as “stable”.
